Test results from patent US12352767B2, “Method of treating cognitive decline associated with neurological diseases based on a decrease in FLT4 expression or activity” (University of Virginia Patent Foundation, priority 2018, dated 2025).
Entries after “also recorded” stand apart in the source; their conditions may differ.

Key:
Assay type in all cases: in vivo
mice [1] = assay: Novel location recognition test; conditions: Visudyne/photoconversion twice, adult mice
Method: Novel location recognition test was performed following a published protocol^52 with modifications. The experimental apparatus used in this study was the same square box made of opaque white plastic (35 cm×35 cm) used in the Open field test. The mice were first habituated to the apparatus for 15 min. Two different plastic objects (one red and the other blue and with different shapes) were then positioned in a defined spatial orientation, namely on each corner of the arena and 5 cm away from each adjacent arena wall. Mice were then placed in the arena (by a blinded experimenter), facing the wall farther away from the objects and allowed to explore the arena and objects for 10 min. Twenty-four hours later, the mice were placed in the same box with the same two objects, but one of them had switched location and was placed in a new quadrant, obliquely to the familiar object (novel location test). The time spent exploring the objects in the familiar and novel locations was also measured for 10 min. Exploration of an object was assumed when the mouse approached an object and touched it with its vibrissae, snout or forepaws and was measured using a video tracking software (TopScan, CleverSys, Inc.). The object location preference (% of time with object) was calculated as the exploration time of the objects in the familiar or in the novel location/total exploration time.

mice [2] = assay: Contextual fear conditioning test; conditions: Visudyne/photoconversion twice
Method: This behavioral test was performed following a published protocol^53 with modifications. In this associative learning task, mice are presented with a neutral conditioned cue stimulus that is paired with an aversive unconditioned stimulus in a particular context. The mice learn that the chamber context and the cue stimulus predict the aversive stimulus and elicit a specific behavioral response, namely freezing. Mice were brought into the testing room to acclimate for at least 30 minutes before testing. For the test, we used two Habitest® chambers (Coulbourn Instruments, Allentown, PA, USA) with stainless grid floors attached to a shock generator for foot shock delivery and dimly illuminated with a white fluorescent light bulb. The chambers were cleaned and made odor-free before starting the experiment and between each session (or each mouse). The fear conditioning test was conducted over 2 days. […] On day 2, mice were tested and scored for conditioned fear to the training context for 3 minutes (context test), but with no presentation of the cue stimulus. […] Mice behaviour was recorded by a digital video camera mounted above the conditioning chamber and freezing was manually scored by a blinded experimenter using the Etholog V2.2 software. Parameters analysed included the percentage of time freezing during the 3 minutes of the context test and the last 3 minutes of the cued test.

mice [3] = assay: Open field test; conditions: Visudyne/photoconversion twice, two-week interval, adult mice
Method: Open field was performed following a published protocol^51 with minor modifications. Mice were carried to the behavior room to habituate at least 30 min before starting the test. Mice were then placed into the open field arena (made of opaque white plastic material, 35 cm×35 cm) by a blinded experimenter and allowed to explore it for 15 min. Total distance (cm) and % time spent in the center (22 cm×22 cm) were quantified using video tracking software (TopScan, CleverSys, Inc.).

5×FAD mice = assay: Amyloid pathology in meninges and hippocampus of 5xFAD mice (Aβ immunostaining)
Method: Male or female wild-type mice (C57BL/6J background) were either bred in-house, purchased from the Jackson Laboratory (Bar Harbor, Maine, USA) or provided by the National Institutes of Health/National Institute on Aging (Bethesda, MD, USA). All mice were maintained in the animal facility for habituation for at least 1 week prior to the start of the manipulation/experimentation. C57BL/6J wild-type mice were tested at 2-3, 12-14 and 20-24 months of age. Male hemizygous B6.Cg-Tg(PDGFB-APPSwInd)20Lms/2Mmjax (J20, JAX stock #006293) and B6.Cg-Tg(APPSwFILon,PSEN1*M146L*L286V)6799Vas/Mmjax (5×FAD, JAX stock #008730) were purchased from the Jackson Laboratory and bred in-house on a C57BL/6J background. […] 5×FAD hemizygous mice overexpress the transgene constructs under neural-specific elements of the mouse thymocyte differentiation antigen 1 promoter and present accelerated accumulation of Aβ42 and deposition of amyloid and gliosis in the brain starting at 2 months of age, with dramatic amyloid plaque load without major behavioral deficits at 5 months^45. In-house bred male transgene carriers and non-carrier (WT) littermates were used at different ages that are indicated throughout the manuscript. Prox1^LacZ mice (designated Prox1^+/− mice in this manuscript) on a NMRI background (kindly provided by Dr. Guillermo Oliver, Northwestern University, Chicago, IL) were also bred in-house and used in this study as a constitutive model for dysfunctional lymphatic vessels^46. Mice of all strains were housed in an environment with controlled temperature and humidity, on 12 hours light/dark cycles (lights on at 7:00), and fed with regular rodent's chow and sterilized tap water ad libitum. All experiments were approved by the Institutional Animal Care and Use Committee of the University of Virginia.

[4] = Visudyne/photoconversion for 1.5 months

verteporfin [Visudyne]
NLR novel location task (time with object in novel location) (mice [1]): No differences between the groups; also recorded: identical | NLR training performance (mice [1]): identical | CFC context test (mice [2]; adult mice): no differences between groups | CFC cued test (mice [2]; vs control groups): statistically significant difference | open field time in center of the arena (mice [3]): No differences between the groups | open field total distance (mice [3]): No differences between the groups | amyloid deposition in the meninges (5×FAD mice; Visudyne/photoconversion every 3 weeks for 1.5 months from ~2 months of age): marked deposition of amyloid in the meninges | brain amyloid burden in the hippocampi (5×FAD mice; [4]): aggravation of brain amyloid burden | macrophage recruitment to Aβ aggregates in meninges (5×FAD mice; [4]): macrophage recruitment to large Aβ aggregates
